Tested on: skin tissue containing sebaceous glands (sebum synthesis)
Experiment: Percent sebum synthesis inhibition in cultured hamster auricle skin tissue containing sebaceous glands (radioactive sodium acetate incorporation into lipids; method of Hall et al.)
Assay type: cell-based
Settings: Mesocricetus auratus; concentration 8 μM; 3 hours culture; average of 6 animals
Protocol: The following test was conducted to evaluate the sebum synthesis inhibitory action of the benzoic acid derivatives according to the present invention.
Measurement of sebum synthesis was made in accordance with the method of Hall, et al. (cf. Arch. Dermatol. Res., 275:1-7 (1983)). The skin tissue (diameter: 4 mm) containing sebaceous glands, taken from the auricle of a male hamster, was cultured in a Krebes-Ringer's phosphate-buffered solution containing radioactive sodium acetate for 3 hours. The tissue was hydrolyzed and extracted with hexane. The amount of the radioactive labelled lipids in the hexane fraction was measured with a liquid scintillation counter to obtain the amount of the synthesized sebum. The skin tissue obtained from the left auricle of a hamster was tested using a Krebes-Ringer's phosphate-buffered solution, while that obtained from the right one of the same hamster was tested using a Krebes-Ringer's phosphate-buffered solution containing each of the compounds shown in Tables 1 and 2, and a percent synthesis inhibition was obtained according to the following numerical formula.
Percent sebum synthesis inhibition (%) =
100 - (amount of sebum synthesized in the presence of
a test compound)/(amount of sebum synthesized in the
absence of a test compound) × 100

Compound | inhibition at 8 µM [%]
CC(=O)Oc1cc(OCC2CCCCC2)ccc1C(=O)O [Compound 29, 2-acetoxy-4-cyclohexylmethoxybenzoic acid] | 48
O=C(O)c1cc(OCCC2CCCCC2)ccc1O [Compound 24, 5-(2-cyclohexylethoxy)-2-hydroxybenzoic acid] | 78
CCCCC(CC)COc1ccc(C(=O)NCCO)c(O)c1 (centres unmarked) [Compound 27, N-(2-Hydroxyethyl)-4-(2-ethylhexyloxy)-2-hydroxybenzamide] | 15
CCCCCCOc1ccc(O)c(C(=O)O)c1 [Compound 25, 5-n-hexyloxy-2-hydroxybenzoic acid] | 80
CCCCCCCCCCOc1ccc(C(=O)O)c(O)c1 [Compound 21, 4-n-decyloxy-2-hydroxybenzoic acid] | 13
CC(CCOc1ccc(O)c(C(=O)O)c1)CC(C)(C)C (centres unmarked) [Compound 23, 2-hydroxy-5-(3,5,5-trimethylhexyloxy)benzoic acid] | 83
CCCCCCCCOc1ccc(C(=O)O)c(O)c1 [Compound 20, 2-hydroxy-4-n-octyloxybenzoic acid] | 26
CCCCC(CC)COc1ccc(O)c(C(=O)O)c1 (centres unmarked) [Compound 22, 5-(2-ethylhexyloxy)-2-hydroxybenzoic acid] | 84
CCCCCCOc1ccc(C(=O)O)c(O)c1 [Compound 19, 4-n-hexyloxy-2-hydroxybenzoic acid] | 58

Same assay, conditions: Mesocricetus auratus; concentration 10 μM; 3 hours culture; average of 6 animals

Compound | inhibition at 10 µM [%]
CC(C)=CCC/C(C)=C/COc1ccc(C(=O)O)c(O)c1 [Compound 39, 4-{(2E)-3,7-dimethylocta-2,6-dienyloxy}-2-hydroxybenzoic acid] | 52
CC(C)=CCCC(C)CCOc1ccc(C(=O)O)c(O)c1 (centres unmarked) [Compound 18, 4-(3,7-dimethyl-6-octenyloxy)-2-hydroxybenzoic acid] | 45
CCCCC(CC)COc1ccc(C(=O)O)c(O)c1 (centres unmarked) [Compound 14, 4-(2-ethylhexyloxy)-2-hydroxybenzoic acid] | 60
CC(C)=CCC/C(C)=C/COc1ccc(C(=O)NCCO)c(O)c1 [Compound 46, N-(2-hydroxyethyl)-4-{(2E)-3,7-dimethylocta-2,6-dienyloxy}-2-hydroxybenzamide] | 28
CC(C)=CCC/C(C)=C/COc1ccc(O)c(C(=O)O)c1 [Compound 40, 5-{(2E)-3,7-dimethylocta-2,6-dienyloxy}-2-hydroxybenzoic acid] | 72
CC(CCOc1ccc(C(=O)O)c(O)c1)CC(C)(C)C (centres unmarked) [Compound 15, 2-hydroxy-4-(3,5,5-trimethylhexyloxy)benzoic acid] | 66
O=C(O)c1ccc(OCC2CCCCC2)cc1O [Compound 16, 4-cyclohexylmethoxy-2-hydroxybenzoic acid] | 44
O=C(O)c1ccc(OCCC2CCCCC2)cc1O [Compound 17, 4-(2-cyclohexylethoxy)-2-hydroxybenzoic acid] | 57

Same assay, conditions: Mesocricetus auratus; concentration 100 μM; 3 hours culture; average of 6 animals

Compound | inhibition at 100 µM [%]
CCCCC(CC)COc1ccc(C(=O)OC)c(O)c1 (centres unmarked) [Compound 1, methyl 4-(2-ethylhexyloxy)-2-hydroxybenzoate] | 32
CC(C)=CCC/C(C)=C/COc1ccc(C(=O)O)c(O)c1 [Compound 39, 4-{(2E)-3,7-dimethylocta-2,6-dienyloxy}-2-hydroxybenzoic acid] | 93
CC(=O)Oc1cc(OC/C=C(\C)CCC=C(C)C)ccc1C(=O)O [Compound 45, 2-acetoxy-4-{(2E)-3,7-dimethylocta-2,6-dienyloxy}benzoic acid] | 47
CC(C)=CCC/C(C)=C/CC/C(C)=C/COc1ccc(C(=O)O)c(O)c1 [Compound 43, 2-hydroxy-4-{(2E,6E)-3,7,11-trimethyl-2,6,10-dodecatrienyloxy}benzoic acid] | 47
CC(C)=CCC/C(C)=C/COc1cccc(C(=O)O)c1O [Compound 41, 3-{(2E)-3,7-dimethylocta-2,6-dienyloxy}-2-hydroxybenzoic acid] | 91
CC(C)=CCC/C(C)=C/COc1cc(O)cc(C(=O)O)c1 [Compound 42, 3-{(2E)-3,7-dimethylocta-2,6-dienyloxy}-5-hydroxybenzoic acid] | 70

Reference: patent publication US5646184A, “Preparation for external application to the skin and novel benzoic acid derivatives” (Kao Corporation, priority 1993, dated 1997)
